Test results reported in patent EP0004894A1, “Fertilizer for providing plants with iron” (BAYER AG, priority 1978, dated 1979).
One block for each molecule: values may come before it.

Columns and labels:
[1] = system: Chrysanthemum indicum (Sorte: Yellow Delaware); experiment: Iron deficiency control / leaf uptake test (Eisenmangel-Bekämpfung / Blattaufnehmbarkeits-Test); assay type: in vivo; conditions: for Intenistät der Grünfärbung junger Blätter / Ø Anzahl neu gebildeter Blätter: sprayed twice on fully chlorotic plants
Description: Eisenmangel-Bekämpfung / Blattaufnehmbarkeits-Test
In einem Kultursubstrat der oben angegebenen Zusammensetzung werden Versuchspflanzen angezogen, wobei die Dünung und die Bewässerung dadurch erfolgt, daß man zweimal wöchentlich eine mineralische Eisenmangel-Nährlösung nach Hoagland und Arnon (Circular 347, College of Agriculture, University of California, Berkeley 1950) hinzugibt. Die so angezogenen völlig chlorotischen Versuchspflanzen werden in Fünfblattstadium mit der Wirkstoffzubereitung tropfnaß besprüht, wobei durch Abdecken dafür gesorgt wird, daß die Wirkstoffzubereitung nicht in das Kultursubstrat gelangt. Nach 2 Tagen wird erneut in gleicher Weise mit der Wirkstoffzubereitung besprüht. Die Auswertung erfolgt dann, wenn bei den mit einem wasserlöslichen, handelsüblichen Eisen-Dünger in optimaler Menge behandelten Pflanzen durchschnittlich 3 Blätter neu gebildet sind. Es wird jeweils die durchschnittliche Anzahl neu gebildeteter Blätter bei allen Versuchspflanzen ermittelt. Ferner wird die Intensität der Grünfärbung von neu gebildeten Blättern bonitiert und durch Kennzahlen ausgedrückt.

[2] = Water solubility of the preparation; assay type: physicochemical
[3] = 0,1 % preparation in spray liquid
[4] = 0,02 % preparation in spray liquid
[5] = 0,5 % preparation in spray liquid

Wasserlöslichkeit des Präparates [2]: gering
SMILES: CCC(=O)c1cc[cH-]c1.[Fe+2].c1cc[cH-]c1 [Propionylferrocen, reference compound]
Intenistät der Grünfärbung junger Blätter [1, 3]: 3 (25 %-ig chlorotisch) | Ø Anzahl neu gebildeter Blätter [1, 3]: 4 | Intenistät der Grünfärbung junger Blätter [1, 4]: 8 | Ø Anzahl neu gebildeter Blätter [1, 4]: 3 | Intenistät der Grünfärbung junger Blätter [1, 5]: 2 | Ø Anzahl neu gebildeter Blätter [1, 5]: 5

Wasserlöslichkeit des Präparates [2]: gering
SMILES: CC(CC(=O)[c-]1cccc1)CC(C)(C)C.[Fe+2].c1cc[cH-]c1 (stereo not drawn) [3,5,5-Trimethylhexanoyl-ferrocen]
Intenistät der Grünfärbung junger Blätter [1, 3]: 2 | Ø Anzahl neu gebildeter Blätter [1, 3]: 5 | Intenistät der Grünfärbung junger Blätter [1, 4]: 3 (25 %-ig chlorotisch) | Ø Anzahl neu gebildeter Blätter [1, 4]: 4 | Intenistät der Grünfärbung junger Blätter [1, 5]: 1 (0 %-ig chlorotisch (dunkelgrün)) | Ø Anzahl neu gebildeter Blätter [1, 5]: 7 | Eisenmangel ([1]; fully chlorotic Chrysanthemum indicum, Sorte Yellow Delaware): stark verringern oder sogar völlig beheben
